Read-outs that look alike come from different tables or passages of the source.
How the values were obtained:
[1] = system: cardiomyocytic cell line derived from human ventricular heart tissue; experiment: Small molecule compound screen of gigasome production in cardiomyocytic monocultures; settings: for downregulation of gigasome production: doses 10-10,000 nM, 24 h;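 as to all read-outs here: gigasomes shed into the culture medium were imaged by confocal microscopy and counted as round particles lacking nuclear signal, extrapolated to the whole well, fold change is relative to DMSO vehicle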
[2] = system: neuronal cell line derived from human neuroblastoma; experiment: Small molecule compound screen of gigasome production in neuronal monocultures; settings: for fold induction at 0.01 µM / fold induction at 0.1 µM / fold induction at 1 µM / fold induction at 10 µM: Homo sapiens, read-out: Fold Change of Gigasomes Produced vs. DMSO; for Number of Gigasomes Produced / Fold Change of Gigasomes Produced vs. DMSO: 24 hours
[3] = system: neuronal cell line derived from human neuroblastoma; settings: neuronal cells, 24 hours
Method: For the screening, a total of 99 compounds (TargetMol) were divided in 5 groups. Each group included an untreated condition, a vehicular DMSO control, and a known high-gigasome producing condition to comparatively study gigasome production rates. As a cell death control group, 500 nM Staurosporine was added to induce apoptosis. Cultures were incubated for 24 hours under gigasome inducing conditions at concentrations ranging between 10 nM and 10,000 nM. Before the end of the treatment, live neuronal cultures were imaged. The Zeiss ZEN Blue software was used to distribute imaging fields of view (positions) to create an unbiased imaging sample of a well. 5 images were taken using a Zeiss LSM 900 confocal microscope. […] The BioApps ZEN software package was used to perform cell nucleus segmentation and counting. After 24 hours, gigasomes were harvested from the cell culture media by gently removing from the top of each 96-well ⅔ of the total volume without disturbing the cell layer (containing the settled gigasomes) and by adding to each well the same amount of PBS. […] Cells remaining in the 96-well plates were assessed for viability using CellTiter-Glo (Promega).

[4] = Table 23 (down-regulators), dose 10 nM, cardiomyocytes
[5] = Table 23 (down-regulators), dose 100 nM, cardiomyocytes
[6] = Table 23 (down-regulators), dose 1000 nM, cardiomyocytes
[7] = Table 23 (down-regulators), dose 10000 nM, cardiomyocytes
[8] = Table 22, dose 10 nM, cardiomyocytes, 24 hours
[9] = Table 22, dose 100 nM, cardiomyocytes, 24 hours
[10] = Table 22, dose 1000 nM, cardiomyocytes, 24 hours
[11] = Table 22, dose 10000 nM, cardiomyocytes, 24 hours

Compound: O=C(Oc1cccc(F)c1OC(=O)c1cccc(O)c1)c1cccc(O)c1 [WZB117, reference compound]
- Fold Change of Gigasomes Produced vs. DMSO [1, 4]: 1.0-1.25
- Number of Gigasomes Produced [1, 4]: 120-135
- Fold Change of Gigasomes Produced vs. DMSO [1, 5]: 0.75-1.0
- Number of Gigasomes Produced [1, 5]: 105-120
- Fold Change of Gigasomes Produced vs. DMSO [1, 6]: 0.75-1.0
- Number of Gigasomes Produced [1, 6]: 105-120
- Fold Change of Gigasomes Produced vs. DMSO [1, 7]: 0.25-0.5
- Number of Gigasomes Produced [1, 7]: 35-50
- downregulation of gigasome production ([1]; cardiomyocytes): dose-dependent downregulation

Compound: CCN(CCO)CCCC(C)Nc1ccnc2cc(Cl)ccc12 (centres unmarked) [Hydroxychloroquine]
- fold induction at 0.01 µM ([2]; 24 h): 1 to 1.25
- fold induction at 0.1 µM ([2]; 24 h): 0.75 to 1
- fold induction at 1 µM ([2]; 24 h): 0.75 to 1
- fold induction at 10 µM ([2]; 24 h): 0.75 to 1
- Number of Gigasomes Produced ([2]; neuronal cells, dose 10 nM): 30-35
- Number of Gigasomes Produced ([2]; neuronal cells, dose 100 nM): 20-25
- Number of Gigasomes Produced ([2]; neuronal cells, dose 1000 nM): 25-30
- Number of Gigasomes Produced ([2]; neuronal cells, dose 10000 nM): 20-25
- Viability ([3]; dose 10 nM): 100%
- Viability ([3]; dose 100 nM): 100%
- Viability ([3]; dose 1000 nM): >75%
- Viability ([3]; dose 10000 nM): >75%

Compound: O=C(Nc1ccc(O)c(C(=O)O)c1)c1cccc(NC(=O)c2ccco2)c1 [OSS128167]
- Fold Change of Gigasomes Produced vs. DMSO ([2]; neuronal cells, dose 10 nM): 1.0-1.25
- Number of Gigasomes Produced ([2]; neuronal cells, dose 10 nM): >40
- Fold Change of Gigasomes Produced vs. DMSO ([2]; neuronal cells, dose 100 nM): 0.75-1.0
- Number of Gigasomes Produced ([2]; neuronal cells, dose 100 nM): 25-30
- Fold Change of Gigasomes Produced vs. DMSO ([2]; neuronal cells, dose 1000 nM): 0.75-1.0
- Number of Gigasomes Produced ([2]; neuronal cells, dose 1000 nM): 25-30
- Viability ([3]; dose 10 nM): 100%
- Viability ([3]; dose 100 nM): >75%
- Viability ([3]; dose 1000 nM): 100%

Compound: CC[C@H](CO)Nc1nc(NCc2ccccc2)c2ncn(C(C)C)c2n1 [Seliciclib]
- fold induction at 0.01 µM ([2]; 24 h): 0.75 to 1
- fold induction at 0.1 µM ([2]; 24 h): 0.75 to 1
- fold induction at 1 µM ([2]; 24 h): 0.75 to 1
- fold induction at 10 µM ([2]; 24 h): 0.5 to 0.75
- Number of Gigasomes Produced ([2]; neuronal cells, dose 10 nM): 25-30
- Number of Gigasomes Produced ([2]; neuronal cells, dose 100 nM): 25-30
- Number of Gigasomes Produced ([2]; neuronal cells, dose 1000 nM): 25-30
- Number of Gigasomes Produced ([2]; neuronal cells, dose 10000 nM): 15-20
- Viability ([3]; dose 10 nM): 100%
- Viability ([3]; dose 100 nM): 100%
- Viability ([3]; dose 1000 nM): 100%
- Viability ([3]; dose 10000 nM): 100%

Compound: CC(/C=C/C(=O)NO)=C\[C@@H](C)C(=O)c1ccc(N(C)C)cc1 [Trichostatin A]
- Fold Change of Gigasomes Produced vs. DMSO ([2]; neuronal cells, dose 1000 nM): 1.75-2.0
- Number of Gigasomes Produced ([2]; neuronal cells, dose 1000 nM): 55-65
- Viability ([3]; dose 1000 nM): 50-75%

Compound: CC(C)[C@H](O)C(=O)N[C@@H](C)C(=O)N[C@@H]1C(=O)N(C)CCc2ccccc21 [Semagacestat]
- fold induction at 0.01 µM ([2]; 24 h): 0.75 to 1
- fold induction at 0.1 µM ([2]; 24 h): 0.75 to 1
- fold induction at 1 µM ([2]; 24 h): 0.5 to 0.75
- fold induction at 10 µM ([2]; 24 h): 0.5 to 0.75
- Number of Gigasomes Produced ([2]; neuronal cells, dose 10 nM): >40
- Number of Gigasomes Produced ([2]; neuronal cells, dose 100 nM): 35-40
- Number of Gigasomes Produced ([2]; neuronal cells, dose 1000 nM): 20-25
- Number of Gigasomes Produced ([2]; neuronal cells, dose 10000 nM): 20-25
- Viability ([3]; dose 10 nM): 100%
- Viability ([3]; dose 100 nM): 100%
- Viability ([3]; dose 1000 nM): 100%
- Viability ([3]; dose 10000 nM): 100%

Compound: CC(=O)c1cc2c(o1)C(=O)c1ccccc1C2=O [Napabucasin]
- fold induction at 0.01 µM ([2]; 24 h): 1 to 1.25
- fold induction at 0.1 µM ([2]; 24 h): 1.5 to 1.75
- Number of Gigasomes Produced ([2]; neuronal cells, dose 10 nM): 35-45
- Number of Gigasomes Produced ([2]; neuronal cells, dose 100 nM): 45-55
- Viability ([3]; dose 10 nM): 100%
- Viability ([3]; dose 100 nM): 100%

Compound: COC(=O)C1=C(C)NC(C)=C([N+](=O)[O-])C1c1ccccc1C(F)(F)F (centres unmarked) [Bay K 8644]
- Fold Change of Gigasomes Produced vs. DMSO [1, 4]: 0.75-1.0
- Number of Gigasomes Produced [1, 4]: >150
- Fold Change of Gigasomes Produced vs. DMSO [1, 5]: 0.5-0.75
- Number of Gigasomes Produced [1, 5]: 120-135
- Fold Change of Gigasomes Produced vs. DMSO [1, 6]: 0.75-1.0
- Number of Gigasomes Produced [1, 6]: 105-120
- Fold Change of Gigasomes Produced vs. DMSO [1, 7]: 0.25-0.5
- Number of Gigasomes Produced [1, 7]: 75-90
- Fold Change of Gigasomes Produced vs. DMSO ([2]; neuronal cells, dose 10 nM): 1.25-1.5
- Number of Gigasomes Produced ([2]; neuronal cells, dose 10 nM): 35-45
- Fold Change of Gigasomes Produced vs. DMSO ([2]; neuronal cells, dose 100 nM): 1.25-1.5
- Number of Gigasomes Produced ([2]; neuronal cells, dose 100 nM): 35-45
- Fold Change of Gigasomes Produced vs. DMSO ([2]; neuronal cells, dose 1000 nM): 1.25-1.5
- Number of Gigasomes Produced ([2]; neuronal cells, dose 1000 nM): 35-45

Compound: CC(C)(O)c1coc(S(=O)(=O)NC(=O)Nc2c3c(cc4c2CCC4)CCC3)c1 [MCC950 sodium]
- fold induction at 0.01 µM ([2]; 24 h): 1 to 1.25
- fold induction at 0.1 µM ([2]; 24 h): 1 to 1.25
- fold induction at 1 µM ([2]; 24 h): 0.5 to 0.75
- fold induction at 10 µM ([2]; 24 h): 0.75 to 1
- Number of Gigasomes Produced ([2]; neuronal cells, dose 10 nM): 35-40
- Number of Gigasomes Produced ([2]; neuronal cells, dose 100 nM): 35-40
- Number of Gigasomes Produced ([2]; neuronal cells, dose 1000 nM): 20-25
- Number of Gigasomes Produced ([2]; neuronal cells, dose 10000 nM): 25-30
- Viability ([3]; dose 10 nM): 100%
- Viability ([3]; dose 100 nM): >75%
- Viability ([3]; dose 1000 nM): 100%
- Viability ([3]; dose 10000 nM): 100%

Compound: C[C@H](NC(=O)Cc1cc(F)cc(F)c1)C(=O)N[C@H](C(=O)OC(C)(C)C)c1ccccc1 [DAPT]
- Fold Change of Gigasomes Produced vs. DMSO [1, 8]: 1.0-1.25
- Number of Gigasomes Produced [1, 8]: 200-225
- Fold Change of Gigasomes Produced vs. DMSO [1, 9]: 1.25-1.5
- Number of Gigasomes Produced [1, 9]: 250-275

Compound: O=C1CSC(c2ccccc2Cl)c2cc(Cl)ccc2N1 (centres unmarked) [CGP37157, reference compound]
- Fold Change of Gigasomes Produced vs. DMSO [1, 4]: 0.75-1.0
- Number of Gigasomes Produced [1, 4]: 120-135
- Fold Change of Gigasomes Produced vs. DMSO [1, 5]: 0.75-1.0
- Number of Gigasomes Produced [1, 5]: 105-120
- Fold Change of Gigasomes Produced vs. DMSO [1, 6]: 0.25-0.5
- Number of Gigasomes Produced [1, 6]: 50-75
- Fold Change of Gigasomes Produced vs. DMSO [1, 7]: 0.25-0.5
- Number of Gigasomes Produced [1, 7]: 50-75
- downregulation of gigasome production ([1]; cardiomyocytes): dose-dependent downregulation

Compound: CCC(C)(C)C(=O)O[C@H]1C[C@@H](C)C=C2C=C[C@H](C)[C@H](CC[C@@H]3C[C@@H](O)CC(=O)O3)[C@H]21 [Simvastatin]
- Number of Gigasomes Produced ([2]; neuronal cells, dose 100 nM): <35
- Number of Gigasomes Produced ([2]; neuronal cells, dose 1000 nM): 35-45
- Number of Gigasomes Produced ([2]; neuronal cells, dose 10000 nM): 45-55

Compound: Fc1ccc(CNc2ncnc3ccc(F)cc23)cc1 [Spautin-1]
- Fold Change of Gigasomes Produced vs. DMSO [1, 4]: 0.75-1.0
- Number of Gigasomes Produced [1, 4]: 105-120
- Fold Change of Gigasomes Produced vs. DMSO [1, 5]: 0.75-1.0
- Number of Gigasomes Produced [1, 5]: 120-135
- Fold Change of Gigasomes Produced vs. DMSO [1, 6]: 0.5-0.75
- Number of Gigasomes Produced [1, 6]: 90-105
- Fold Change of Gigasomes Produced vs. DMSO [1, 7]: 0.5-0.75
- Number of Gigasomes Produced [1, 7]: 75-90

Compound: O=C(/C=C/c1ccc(/C=C/C(=O)Nc2ccc(C3=NCCN3)cc2)cc1)Nc1ccc(C2=NCCN2)cc1 [GW4869, reference compound]
- Number of Gigasomes Produced ([2]; neuronal cells, dose 10 nM): 30-35
- Fold Change of Gigasomes Produced vs. DMSO ([2]; neuronal cells, dose 100 nM): 0.75-1.0
- Number of Gigasomes Produced ([2]; neuronal cells, dose 100 nM): 35-40
- Fold Change of Gigasomes Produced vs. DMSO ([2]; neuronal cells, dose 1000 nM): 0.25-0.5
- Number of Gigasomes Produced ([2]; neuronal cells, dose 1000 nM): 15-20
- Fold Change of Gigasomes Produced vs. DMSO ([2]; neuronal cells, dose 10000 nM): 0.25-0.5
- Number of Gigasomes Produced ([2]; neuronal cells, dose 10000 nM): 5-10
- downregulation of gigasome production ([2]; neuronal cells, doses 10-10,000 nM, 24 h): dose-dependent downregulation

Compound: CCCCc1ccc(NC(C)=O)c(C)c1 [SMIP004]
- Fold Change of Gigasomes Produced vs. DMSO [1, 10]: 1.0-1.25
- Number of Gigasomes Produced [1, 10]: 150-175
- Fold Change of Gigasomes Produced vs. DMSO [1, 11]: 1.25-1.5
- Number of Gigasomes Produced [1, 11]: 175-200
- Fold Change of Gigasomes Produced vs. DMSO ([2]; neuronal cells, dose 10 nM): >1.25
- Number of Gigasomes Produced ([2]; neuronal cells, dose 10 nM): >40
- Fold Change of Gigasomes Produced vs. DMSO ([2]; neuronal cells, dose 100 nM): 0.75-1.0
- Number of Gigasomes Produced ([2]; neuronal cells, dose 100 nM): 35-40
- Fold Change of Gigasomes Produced vs. DMSO ([2]; neuronal cells, dose 1000 nM): 0.75-1.0
- Number of Gigasomes Produced ([2]; neuronal cells, dose 1000 nM): 30-35
- Fold Change of Gigasomes Produced vs. DMSO ([2]; neuronal cells, dose 10000 nM): 0.75-1.0
- Number of Gigasomes Produced ([2]; neuronal cells, dose 10000 nM): 30-35

Compound: COc1ccc(S(=O)(=O)N(CCO)c2ccccc2CN(C)C/C=C/c2ccc(Cl)cc2)cc1 [KN-93, reference compound]
- Fold Change of Gigasomes Produced vs. DMSO [1, 8]: 1.25-1.5
- Number of Gigasomes Produced [1, 8]: 225-250
- Fold Change of Gigasomes Produced vs. DMSO [1, 10]: 1.25-1.5
- Number of Gigasomes Produced [1, 10]: 250-275
- Fold Change of Gigasomes Produced vs. DMSO [1, 11]: 1.5-1.75
- Number of Gigasomes Produced [1, 11]: 250-275

Compound: NC(=O)C1CCCc2c1[nH]c1ccc(Cl)cc21 (centres unmarked) [Selisistat]
- Fold Change of Gigasomes Produced vs. DMSO [1]: 1.25-1.5
- Number of Gigasomes Produced [1, 8]: 150-175

Compound: O=C(Nc1ccccc1-c1cn2c(CN3CCNCC3)csc2n1)c1cnc2ccccc2n1 [SRT 1720]
- Fold Change of Gigasomes Produced vs. DMSO [1, 10]: 1.0-1.25
- Number of Gigasomes Produced [1, 10]: 150-175
